Where a name gives a salt, the structure may show the parent alone.
These compounds were tested against cGMP-specific 3',5'-cyclic phosphodiesterase PDE5 (Cavia porcellus) (assay: Inhibition of Phosphodiesterase 5 of guinea pig lung).

SMILES | IC50
CCOc1cc2cc(CO)c(CO)c(-c3ccnc(-n4nc(-c5cccnc5)c5ccccc5c4=O)c3)c2cc1OC [2-[4-(6-Ethoxy-2,3-bis-hydroxymethyl-7-methoxy-naphthalen-1-yl)-pyridin-2-yl]-4-pyridin-3-yl-2H-phthalazin-1-one; hydrochloride] | 1 µM
O=c1c2ccccc2c(-c2cccnc2)nn1-c1cc(-c2c(CO)c(CO)cc3ccccc23)ccn1 [2-[4-(2,3-Bis-hydroxymethyl-naphthalen-1-yl)-pyridin-2-yl]-4-pyridin-3-yl-2H-phthalazin-1-one; hydrochloride] | 10 µM
COc1cc2cc(CO)c(CO)c(-c3ccnc(-n4ccccc4=O)c3)c2cc1OC [4'-(2,3-Bis-hydroxymethyl-6,7-dimethoxy-naphthalen-1-yl)-[1,2']bipyridinyl-2-one] | 40 µM
COc1cc2cc(CO)c(CO)c(-c3ccnc(-n4nc(-c5cccnc5)c5ccccc5c4=O)c3)c2cc1OC [2-[4-(2,3-Bis-hydroxymethyl-6,7-dimethoxy-naphthalen-1-yl)-pyridin-2-yl]-4-pyridin-3-yl-2H-phthalazin-1-one; hydrochloride] | 4 µM
COc1cc2cc(CO)c(CO)c(-c3ccnc(-n4ccc(=O)c5ccccc54)c3)c2cc1OC [1-[4-(2,3-Bis-hydroxymethyl-6,7-dimethoxy-naphthalen-1-yl)-pyridin-2-yl]-1H-quinolin-4-one] | 20 µM
COc1cc2cc(CO)c(CO)c(-c3ccc(-n4nc(-c5cccnc5)c5ccccc5c4=O)nc3)c2cc1OC [2-[5-(2,3-Bis-hydroxymethyl-6,7-dimethoxy-naphthalen-1-yl)-pyridin-2-yl]-4-pyridin-3-yl-2H-phthalazin-1-one; hydrochloride] | 40 µM
COc1cc2cc(CO)c(CO)c(-c3ccnc(-n4nc(-c5ccccn5)c5ccccc5c4=O)c3)c2cc1OC [2-[4-(2,3-Bis-hydroxymethyl-6,7-dimethoxy-naphthalen-1-yl)-pyridin-2-yl]-4-pyridin-2-yl-2H-phthalazin-1-one; hydrochloride] | 9 µM
CCOc1cc2cc(CO)c(CO)c(-c3ccnc(-n4nc(-c5cccnc5)c5ccccc5c4=O)c3)c2cc1OCC [2-[4-(6,7-Diethoxy-2,3-bis-hydroxymethyl-naphthalen-1-yl)-pyridin-2-yl]-4-pyridin-3-yl-2H-phthalazin-1-one; hydrochloride] | 0.2 µM
